According to US20190185829A1, “Preparation of lipase with improved ester synthesis activity by using surfactants” (Jiangnan University, priority 2017, published 2019):

Assays:
Assay type in all cases: biochemical
[1] = molecular target: T1, Candida antarctica lipase CALB (Moesziomyces antarcticus, UniProt P41365); experiment: Hydrolytic activity of surfactant-treated lipase CALB using pNPP as substrate; details: surfactant 10 mM, protein 0.12 mg·mL^−1
T1 construct: purchased Sigma-Aldrich Co., Ltd
From the text: (§1) (1) Determination of Hydrolytic Activity of the Lipase Using p-Nitrophenyl Palmitate (pNPP) as Substrate
(§2) Hydrolysis of pNPP catalyzed by lipase generates p-nitrophenol and palmitic acid. p-nitrophenol appears yellow in the buffer at pH 8.0 with the maximum absorption peak at 410 nm. Determination of hydrolytic activity can be achieved by measuring the absorbance at 410 nm.
(§3) The substrate solution A: 50 mmol·L^−1 sodium phosphate buffer (pH 8.0) containing 1.16 g·L^−1 sodium deoxycholate and 0.56 g·L^−1 arabic gum. Substrate solution B: 0.015 g pNPP is dissolved in 5 mL isopropyl alcohol. Substrate solution A and substrate solution B are mixed then stored for use afterwards.
(§4) Termination solution: 40 g·L^−1 NaOH, 93.05 g·L^−1 EDTA sodium. Add 62 uL termination solution to the reaction mixture when stopping the reaction.
(§5) Add 0.1 mL appropriately diluted enzyme solution, which is substituted by inactivated enzyme solution as the control, to 2.4 mL substrate solution above, incubate the mixture at 40° C. for 2 min and measure the absorbance at 410 nm.
(§6) one hydrolytic activity unit is defined as the amount of enzyme that catalyzes the formation of 1 μmol of p-nitrophenol in 1 minute at 40° C.
(§7) enzyme activity (U·mL^−1)=(V×A410×10^6)/(ε×t×V′) Calculation equation: […]
(§8) Specific activity: the activity of lipase per milligram of total protein in the lipase preparation. […]
(§9) Commercial lipase CALB was purchased from Sigma-Aldrich Co., Ltd. CALB is a non-immobilized lipase. Dissolve the CALB powder in water and centrifuge to obtain the supernatant containing the CALB lipase that would be regulated to improve the ester synthesis activity by adjusting the final protein concentration to 0.12 mg·mL^−1 and adding surfactants to the final concentration of 10 mM.
(§10) Commercial lipase CALB was purchased from Sigma-Aldrich Co., Ltd. and is a non-immobilized lipase. Dissolve the CALB powder in water, centrifuge to obtain the supernatant and treat the supernatant with different concentrations of surfactant DDM (the final protein concentration was 0.12 mg·mL^−1).

[2] = molecular target: T2, Pseudomonas cepacia lipase PCL (Burkholderia cepacia, UniProt P22088); experiment: Ester synthesis activity of surfactant-treated lyophilized lipase PCL by GC analysis; details: surfactant 10 mM, protein 0.2 mg·mL^−1
T2 construct: purchased Sigma-Aldrich Co., Ltd
Experimental: (§11) (2) Determination of Ester Synthesis Activity of the Lipase by GC Analysis
(§12) Substrate solution A: 48.5 mL of n-octanoic acid is dissolved in 250 mL of n-heptane in a volumetric flask.
(§13) Substrate solution B: 17.5 mL of absolute ethanol is dissolved in 250 mL of n-heptane in a volumetric flask.
(§14) Internal standard: 2-hexanol/n-heptane (35 g·L^−1).
(§15) Standard sample: 10 g of n-octanoate is dissolved in 1000 mL of n-heptane in a volumetric flask.
(§16) 1 mL substrate solution A and substrate solution B are added in a 5 mL Eppendorf tube respectively, then 20 mg lipase powder (or lyophilized powder) is added. The reaction is carried out at 40° C. and with shaking at 150 rpm for 30 min. Remove the lipase powder by centrifugation or membrane filtration. Then 0.1 mL of internal standard is added in 0.4 mL of filtrate or supernatant and mixed. Measure the content of n-octanoate in the mixture above by GC analysis.
(§17) The gas chromatograph (6820, Agilent Instruments) is equipped with a AC20 (PEG20000) capillary column and a FID detector. Nitrogen was used as the carrier gas. The oven temperature was programmed to start at 90° C. for 1 min and then be elevated to 200° C. for 5 min at 10° C.·min^−1. The injector and detector temperatures were set at 250° C.
(§18) Definition of enzyme activity: One unit of ester synthesis activity is defined as the amount of enzyme that esterifies 1 micromole of n-octanoate per min.
(§19) Specific activity: the activity of lipase per milligram of total protein in the lipase preparation.
(§20) Total recovery: the percentage of the activity after a treatment to that before the treatment
(§21) Add an equal volume of high-concentration surfactant solution into the enzyme solution. The final protein concentration was […] and the surfactant concentration was 10 mM. After mixed thoroughly, the mixture was lyophilized and kept in dry condition.
as §9, with “PCL” for “CALB”, “0.2” for “0.12”
(§22) Commercial lipase PCL was purchased from Sigma-Aldrich Co., Ltd. and is a non-immobilized lipase. Dissolve the PCL powder in water, centrifuge to obtain the supernatant and treat the supernatant with different concentrations of surfactant DDM (the final protein concentration was 0.2 mg·mL^−1).

[3] = molecular target: T2, Pseudomonas cepacia lipase PCL; experiment: Hydrolytic activity of surfactant-treated lipase PCL using pNPP as substrate; details: surfactant 10 mM, protein 0.2 mg·mL^−1
From the text: as §1, §2, §3, §4, §5, §6, §7, §8
as §9, with “PCL” for “CALB”, “0.2” for “0.12”
as §22

[4] = molecular target: T3, Rhizoupus oryzae lipase ROL (Rhizopus oryzae, UniProt P61872); experiment: Ester synthesis activity of surfactant-treated lyophilized lipase ROL by GC analysis; details: surfactant 10 mM, protein 0.2 mg·mL^−1
T3 construct: purchased Sigma-Aldrich Co., Ltd
Experimental: as §11, §12, §13, §14, §15, §16, §17, §18, §19, §20, §21
as §9, with “lipase ROL” for “lipase CALB”, “Ltd. ROL” for “Ltd. CALB”, “the ROL” for “the CALB”, “improve its” for “improve the”, “to 0.2” for “to 0.12”
(§23) Commercial lipase ROL was purchased from Sigma-Aldrich Co., Ltd. and is a non-immobilized lipase. Dissolve the ROL powder in water, centrifuge to obtain the supernatant and treat the supernatant with different concentrations of surfactant LPC14 (the final protein concentration was 0.2 mg·mL^−1).

[5] = test system: Rhizopus chinensis lipase r27RCL; experiment: Ester synthesis activity of surfactant-treated lyophilized lipase r27RCL by GC analysis; details: surfactant 10 mM, protein 0.2 mg·mL^−1
Experimental: as §11, §12, §13, §14, §15, §16, §17, §18, §19, §20, §21
(§24) Commercial lipase r27RCL was purchased from Jiangsu Yiming Biological Technology Co., Ltd, which has high hydrolytic activity and low ester synthesis activity. Dissolve the r27RCL powder in water and centrifuge to obtain the supernatant containing the r27RCL lipase to adjust the ester synthesis activity (the final protein concentration was 0.2 mg·mL^−1 and the final concentration of surfactant was 10 mM, which is between 0.1×CMC^˜200×CMC of the different surfactants in Table 1).
(§25) Commercial lipase r27RCL was purchased from Jiangsu Yiming Biological Technology Co., Ltd. r27RCL is a lipase with high hydrolytic activity but low ester synthesis activity. Dissolve the r27RCL powder in water, centrifuge to obtain the supernatant and treat the supernatant with different concentrations of surfactant LPC14 (the final protein concentration was 0.2 mg·mL^−1).

[6] = molecular target: T1, Candida antarctica lipase CALB; experiment: Ester synthesis activity of surfactant-treated lyophilized lipase CALB by GC analysis; details: surfactant 10 mM, protein 0.12 mg·mL^−1
Experimental: as §11, §12, §13, §14, §15, §16, §17, §18, §19, §20, §21, §9, §10

[7] = molecular target: T3, Rhizoupus oryzae lipase ROL; experiment: Hydrolytic activity of surfactant-treated lipase ROL using pNPP as substrate; details: surfactant 10 mM, protein 0.2 mg·mL^−1
From the text: as §1, §2, §3, §4, §5, §6, §7, §8
as §9, with “lipase ROL” for “lipase CALB”, “Ltd. ROL” for “Ltd. CALB”, “the ROL” for “the CALB”, “improve its” for “improve the”, “to 0.2” for “to 0.12”
as §23

[8] = test system: Rhizopus chinensis lipase r27RCL; experiment: Hydrolytic activity of surfactant-treated lipase r27RCL using pNPP as substrate; details: surfactant 10 mM, protein 0.2 mg·mL^−1
From the text: as §1, §2, §3, §4, §5, §6, §7, §8, §24, §25

T2 sequence (P22088 45-364): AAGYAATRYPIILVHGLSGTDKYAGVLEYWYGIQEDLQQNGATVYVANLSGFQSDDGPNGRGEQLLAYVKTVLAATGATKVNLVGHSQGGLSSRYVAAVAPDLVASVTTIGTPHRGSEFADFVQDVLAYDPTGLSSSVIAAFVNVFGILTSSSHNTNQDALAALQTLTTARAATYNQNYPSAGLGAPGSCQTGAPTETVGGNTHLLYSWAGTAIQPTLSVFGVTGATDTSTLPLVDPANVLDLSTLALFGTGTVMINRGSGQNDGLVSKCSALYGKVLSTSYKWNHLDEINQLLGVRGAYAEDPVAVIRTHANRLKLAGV
T1 sequence (P41365 26-342): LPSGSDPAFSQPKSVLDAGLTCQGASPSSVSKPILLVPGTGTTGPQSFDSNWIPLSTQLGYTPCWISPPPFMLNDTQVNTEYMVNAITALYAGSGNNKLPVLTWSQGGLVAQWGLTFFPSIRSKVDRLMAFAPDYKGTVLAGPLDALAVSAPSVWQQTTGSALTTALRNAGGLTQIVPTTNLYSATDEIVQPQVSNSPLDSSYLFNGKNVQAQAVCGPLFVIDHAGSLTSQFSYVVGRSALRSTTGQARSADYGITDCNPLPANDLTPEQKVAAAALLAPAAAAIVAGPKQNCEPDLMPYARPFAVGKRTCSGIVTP
T3 sequence (P61872 96-392): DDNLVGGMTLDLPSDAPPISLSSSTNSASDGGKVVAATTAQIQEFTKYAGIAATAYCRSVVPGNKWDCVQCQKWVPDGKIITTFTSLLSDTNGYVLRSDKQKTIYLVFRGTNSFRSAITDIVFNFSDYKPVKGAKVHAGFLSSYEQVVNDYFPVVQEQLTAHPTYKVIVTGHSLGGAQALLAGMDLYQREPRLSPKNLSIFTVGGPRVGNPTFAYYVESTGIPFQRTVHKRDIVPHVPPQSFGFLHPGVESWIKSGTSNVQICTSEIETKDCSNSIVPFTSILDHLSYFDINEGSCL

Row | SMILES | Hydrolytic activity, Specific activity [1] [U · mg^−1] | Hydrolytic activity, Total recovery [1] [%] | Ester synthesis activity, Specific activity [2] [U · mg^−1] | Ester synthesis activity, Total recovery [2] [%] | Hydrolytic activity, Specific activity [3] [U · mg^−1] | Hydrolytic activity, Total recovery [3] [%] | Ester synthesis activity, Specific activity [4] [U · mg^−1] | Ester synthesis activity, Specific activity [5] [U · mg^−1] | Ester synthesis activity, Specific activity [6] [U · mg^−1] | Hydrolytic activity, Specific activity [7] [U · mg^−1] | Hydrolytic activity, Total recovery [7] [%] | Hydrolytic activity, Specific activity [8] [U · mg^−1] | Hydrolytic activity, Total recovery [8] [%] | Ester synthesis activity, Total recovery [5] [%] | Ester synthesis activity, Total recovery [6] [%]
1 | CCCCCCCCCCCCOCCOCCOCCOCCOCCOCCOCCOCCO [C12E8, octaethylene glycol monododecyl ether] | 0 | 0 | 4.6 | 130 | 281.1 | 98 | 2.6 | 22.2 | 62.8 | 23.7 | 82 | 117.1 | 101 |  | 
2 | C[C@H](CCC(=O)NCCC[N+](C)(C)CCCS(=O)(=O)[O-])[C@H]1CC[C@H]2[C@@H]3[C@H](O)C[C@@H]4C[C@H](O)CC[C@]4(C)[C@H]3C[C@H](O)[C@]12C [CHAPS, 3-[(3-Cholamidopropyl)dimethylammonio]-1-propanesulfonate] | 1.6 | 92 | 4.7 | 130 | 248.0 | 101 | 2.6 | 13.0 | 5.9 | 23.6 | 81 | 132.6 | 109 | 105 | 44
